Measurements taken from patent US4550186A, “Binuclear copper (II) carboxylates formed from amine-carboxyboranes” (Duke University, priority 1983, dated 1985).

Tests used:
[1] = test system: Ehrlich ascites carcinoma; experiment: Ehrlich ascites carcinoma growth in CF1 male mice; format: in vivo, mouse
Experimental: CF1 male mice (~30 g) were implanted with 2×10^6 Ehrlich ascites tumor cells, intraperitoneally on Day 0. Compound I was suspended by homogenation in 0.05% polysorbate.80-water and administered intraperitoneally at 10 and 20 mg/kg for 9 days to determine its effectiveness for inhibition of tumor growth. Mice were sacrificed on Day 10, and the ascites fluid was collected from the peritoneal cavity. The volume and ascrit (packed cell volume) were determined for each animal and the percent inhibition of tumor growth was calculated. For the metabolic studies, mice were treated on Days 8 and 9 with 10 mg/kg of Compound I, intraperitoneally. The animal was sacrificed on Day 10 and the ascites fluid harvested. The in vitro metabolic studies were performed at […] final concentration of Compound I.

[2] = doses of 150-200 mg/kg; cited from earlier work

SMILES | Ascrit Packed Cell Vol. ([1]; Standard, dose not given) | Percent Inhibition ([1]; Standard, dose not given) | Vol(ml) Ascites Fluid ([1]; Standard, dose not given) | No. of Animals Survived on Day 10 ([1]; mouse, in vivo) | lowers serum cholesterol [2] | lowers serum triglyceride levels [2]
Sc1ncnc2nc[nH]c12 [6-mercaptopurine, reference compound] | 2.5 | 99.9% | 0.10 mL | 6 |  | 
CCOC(=O)C(C)(C)Oc1ccc(Cl)cc1 [clofibrate] |  |  |  |  | 6-15% | 25%
